Assay results from patent US11510428B2, “Rebaudioside B and derivatives” (SWEET GREEN FIELDS INTERNATIONAL CO., LIMITED, priority 2011, dated 2022).

What was measured:
[1] = cited from earlier work
[2] = Taste comparison between RB and RA by experts (Example 7); assay type: in vivo, human; details: 400 ppm aqueous solution
Excerpt: Taste comparison between RB (prepared in Example 1, first part) and RA Purity of RA was 99.0% by HPLC and RB was 99.1% by HPLC.
RB sample: 400 ppm aqueous solution
RA sample: 400 ppm aqueous solution

[3] = General taste and sweetness statements on steviol glycosides, RA, RB and RB salt (background and description); assay type: in vivo
[4] = Sensory evaluation after adding Reb D to samples of Example 9 (Example 10); assay type: in vivo, human; details: total concentration of rebaudiosides 400 ppm

Molecule	Bitterness and aftertaste ([1]; 100% purity RA, e.g. 500 ppm aqueous solution)	Taste quality ([1]; increased sweetness and decreased bitterness, Phytochemistry 68, 2007)	Bitterness ([2]; 7/10 experts)	Concentration that provides maximum sweetness ([3]; aqueous solution)	Concentration above which there is no increased perceived sweetness ([3]; in food products)	Sensory taste profile on addition of Reb D [4]	Taste profile [2]	Sweetness ([2]; 7/10 experts)	On-set profile ([3]; compared with other steviol glycosides)
C=C1C[C@@]23CC[C@H]4[C@@](C)(CCC[C@@]4(C)C(=O)O[C@@H]4O[C@H](CO)[C@@H](O)[C@H](O)[C@H]4O)[C@@H]2CC[C@]1(O[C@@H]1O[C@H](CO)[C@@H](O)[C@H](O[C@@H]2O[C@H](CO)[C@@H](O)[C@H](O)[C@H]2O)[C@H]1O[C@@H]1O[C@H](CO)[C@@H](O)[C@H](O)[C@H]1O)C3 [RA, Rebaudioside A]	appear strongly at higher concentrations	better than stevioside	strong bitterness profile	About 250 ppm	about 500 ppm				
C=C1C[C@@]23CC[C@H]4[C@@](C)(CCC[C@@]4(C)C(=O)O[C@@H]4O[C@H](CO)[C@@H](O)[C@H](O)[C@H]4O[C@@H]4O[C@H](CO)[C@@H](O)[C@H](O)[C@H]4O)[C@@H]2CC[C@]1(O[C@@H]1O[C@H](CO)[C@@H](O)[C@H](O[C@@H]2O[C@H](CO)[C@@H](O)[C@H](O)[C@H]2O)[C@H]1O[C@@H]1O[C@H](CO)[C@@H](O)[C@H](O)[C@H]1O)C3 [Reb D, Rebaudioside D]						can improve sensory taste profile			
Rebaudioside B [RB]			less bitterness than RA				tasted better than RA	lesser sweetness than RA	short on-set profile
